For the test, the target named is T1, Chitin synthase 3 (Saccharomyces cerevisiae (strain ATCC 204508 / S288c), UniProt P29465).
T1 sequence (P29465 whole entry): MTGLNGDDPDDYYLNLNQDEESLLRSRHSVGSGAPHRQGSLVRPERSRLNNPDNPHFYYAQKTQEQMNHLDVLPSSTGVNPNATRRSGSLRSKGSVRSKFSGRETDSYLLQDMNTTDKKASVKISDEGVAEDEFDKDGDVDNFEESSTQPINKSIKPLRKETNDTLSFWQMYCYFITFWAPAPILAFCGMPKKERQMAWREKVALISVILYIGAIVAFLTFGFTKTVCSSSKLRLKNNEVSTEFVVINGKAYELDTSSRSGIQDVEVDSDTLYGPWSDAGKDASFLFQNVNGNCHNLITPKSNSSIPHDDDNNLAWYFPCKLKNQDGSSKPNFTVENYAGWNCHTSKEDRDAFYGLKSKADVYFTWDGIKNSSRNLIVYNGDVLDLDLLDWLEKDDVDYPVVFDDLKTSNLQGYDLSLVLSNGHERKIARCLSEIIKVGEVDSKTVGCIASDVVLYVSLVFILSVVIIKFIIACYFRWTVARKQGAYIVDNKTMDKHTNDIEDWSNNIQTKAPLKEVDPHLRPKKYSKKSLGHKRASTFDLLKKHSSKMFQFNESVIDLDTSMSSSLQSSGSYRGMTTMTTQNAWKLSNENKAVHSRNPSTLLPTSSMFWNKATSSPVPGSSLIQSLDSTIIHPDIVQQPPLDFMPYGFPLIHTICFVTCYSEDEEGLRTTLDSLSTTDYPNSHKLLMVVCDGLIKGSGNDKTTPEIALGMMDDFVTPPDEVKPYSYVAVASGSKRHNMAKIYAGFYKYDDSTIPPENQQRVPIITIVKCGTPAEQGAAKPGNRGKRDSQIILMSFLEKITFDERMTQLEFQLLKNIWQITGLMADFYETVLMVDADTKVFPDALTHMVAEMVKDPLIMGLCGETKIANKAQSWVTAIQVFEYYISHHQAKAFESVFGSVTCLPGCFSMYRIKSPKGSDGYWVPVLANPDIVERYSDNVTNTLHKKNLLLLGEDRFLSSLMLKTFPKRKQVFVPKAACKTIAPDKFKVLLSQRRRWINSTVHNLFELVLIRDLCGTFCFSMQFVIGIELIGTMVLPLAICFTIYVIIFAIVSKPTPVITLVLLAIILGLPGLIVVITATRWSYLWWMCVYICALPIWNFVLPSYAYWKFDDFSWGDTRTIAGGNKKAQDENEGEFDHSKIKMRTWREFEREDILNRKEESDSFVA
Put plainly: Chitin Synthase Assays. The settings on record: pH 7.5; 25 °C. The method, then: Assays were performed in 96-wells microtiter plate with flat bottom. To each well of the plate, 100 µL of WGA solution was added at 50 µg/mL. After incubation at room temperature for at least 16 h the WGA solution was removed by triple washing with distill water. Wells were then blocked by adding 300 µL of BSA blocking buffer (20 mg/mL, 50 mM Tris-HCl, pH 7.5) and incubated for 3 h at room temperature. Microtiter plates were stored until use at -20 °C in blocking buffer. Before usage plates were thawed at 25 °C and thoroughly emptied. The standard reaction mixture in total volume 100 µL contains: UDP-GlcNAc (2.0 mM), GlcNAc (40 mM), MgCl2 (5.0 mM) and digitonin (0.1% w/v) dissolved in pH 7.5 Tris-HCl buffer (50 mM) containing test compounds at a range of concentrations from 0 mM (control) to 3.0 mM. The enzymatic reactions were started by the addition of 0.2 mg/mL solution of trypsin (1-10 µL) and membrane preparation (5-20 µL). Usually four different concentrations of trypsin were te

What is called IC50 is the concentration at which inhibition is half-maximal. A lower IC50 goes with inhibition by little substance. In turn, `COC(=O)CCC(=O)NC[C@H]1O[C@@H](n2ccc(=O)[nH]c2=O)[C@@H](O)C1O` (some centres not stated) [5'-(N-succinyl)-5'-amino-5'-deoxyuridine methyl ester (7)] registered an IC50 of 800 µM. Under `O=C(CCC(=O)NCC(=O)NC[C@H]1O[C@@H](n2ccc(=O)[nH]c2=O)[C@@H](O)C1O)NCC(=O)NC[C@H]1O[C@@H](n2ccc(=O)[nH]c2=O)[C@@H](O)C1O` (some centres not stated) [Dimer 15 (15)] stands 3000 µM.

The values are drawn from BindingDB's records for doi:10.1016/j.bioorg.2015.05.007 (Silesian University of Technology, 2015).
